These molecules were tested against C-Raf FL (full length CRAF with Y340E and Y341E activating mutations, co-expressed with h14-3-3 zeta) (Homo sapiens (Human), UniProt P04049, Y340E/Y341E) (assay: In vitro Raf activity determination, AlphaScreen p-MEK readout, c-Raf (C-Raf FL)). Settings: c-Raf approximately 4 nM, ATP 1 μM, pre-incubation 60 minutes, reaction 1 hour.
Chain of C-Raf FL (full length CRAF with Y340E and Y341E activating mutations, co-expressed with h14-3-3 zeta) (P04049 whole entry Y340E/Y341E): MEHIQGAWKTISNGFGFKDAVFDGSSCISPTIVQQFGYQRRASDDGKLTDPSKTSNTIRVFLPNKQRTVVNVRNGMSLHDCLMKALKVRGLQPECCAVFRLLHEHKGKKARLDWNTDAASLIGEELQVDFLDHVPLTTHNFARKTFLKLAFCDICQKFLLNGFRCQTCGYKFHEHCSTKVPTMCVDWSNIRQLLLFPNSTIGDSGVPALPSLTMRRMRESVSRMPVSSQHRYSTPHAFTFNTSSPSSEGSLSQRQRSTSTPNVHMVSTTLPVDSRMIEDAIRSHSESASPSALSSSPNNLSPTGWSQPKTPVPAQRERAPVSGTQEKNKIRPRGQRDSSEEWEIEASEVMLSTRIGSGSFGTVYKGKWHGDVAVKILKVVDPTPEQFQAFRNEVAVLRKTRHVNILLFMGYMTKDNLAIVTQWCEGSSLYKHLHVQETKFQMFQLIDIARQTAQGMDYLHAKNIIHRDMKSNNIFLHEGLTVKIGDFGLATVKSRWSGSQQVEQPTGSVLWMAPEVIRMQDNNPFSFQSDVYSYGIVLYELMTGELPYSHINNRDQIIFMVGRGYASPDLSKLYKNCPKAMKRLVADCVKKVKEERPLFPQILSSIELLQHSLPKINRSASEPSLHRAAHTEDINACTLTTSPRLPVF
Chain of C-Raf FL (full length CRAF with Y340E and Y341E activating mutations, co-expressed with h14-3-3 zeta) (P63104 whole entry partner): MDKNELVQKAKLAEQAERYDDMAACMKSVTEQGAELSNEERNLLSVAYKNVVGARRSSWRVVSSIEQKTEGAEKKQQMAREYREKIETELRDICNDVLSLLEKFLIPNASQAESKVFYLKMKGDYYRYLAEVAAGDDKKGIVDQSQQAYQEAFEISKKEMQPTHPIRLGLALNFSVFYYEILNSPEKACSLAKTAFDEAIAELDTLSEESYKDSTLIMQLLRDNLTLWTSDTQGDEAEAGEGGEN
Assay type: biochemical
In short: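 Full-length C-Raf (~4 nM) pre-incubated 60 min at room temperature with compound and kinase-dead biotinylated MEK1 (~10 nM) in Tris pH 7.5, 15 mM MgCl2, BSA, DTT. Reaction started with 1 μM ATP and run 1 h at room temperature. Phospho-MEK detected by AlphaScreen with anti-p-MEK antibody.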
Cc1ccc(NC(=O)c2ccnc(C(C)(F)F)c2)cc1-c1cnc2c(c1)C1CCOCC1OC(=O)N2CCO (stereo not drawn) [Example 332, 2-(1,1-difluoroethyl)-N-(3-((4,11b-cis)-7-(2-hydroxyethyl)-6-oxo-2,4,4a,6,7,11b-hexahydro-1H-pyrano[4,3-f]pyrido[2,3-d][1,3]oxazepin-10-yl)-4-methylphenyl) isonicotinamide] gave an IC50 of 2.1 nM.
Molecule Cc1ccc(NC(=O)c2ccnc(C(F)(F)F)c2)cc1-c1cnc2c(c1)N1CCOCC1C(C)(C)C2O (stereo not shown) [Example 335, N-(3-(6-hydroxy-5,5-dimethyl-1,2,4,4a,5,6-hexahydro-[1.4]oxazino[4,3-a][1.5]naphthyridin-9-yl)-4-methylphenyl)-2-(trifluoromethyl) isonicotinamide] has an IC50 of 0.1 nM.
Work on Cc1ccc(NC(=O)c2ccnc(C(F)(F)F)c2F)cc1-c1cnc2c(c1)N1CCOCC1C(C)(C)C2O (stereo not shown) [Example 336, 3-fluoro-N-(3-(6-hydroxy-5,5-dimethyl-1,2,4,4a,5,6-hexahydro-[1,4]oxazino[4,3-a][1,5]naphthyridin-9-yl)-4-methylphenyl)-2-(trifluoromethyl) isonicotinamide] yielded an IC50 of 0.2 nM.
For Cc1ccc(NC(=O)c2ccnc(C(F)(F)F)c2F)cc1-c1cnc2c(c1)N1CCOCC1C(C)(C)C2O (stereo not shown) [Example 337, 3-fluoro-N-(3-(6-hydroxy-5,5-dimethyl-1,2,4,4a,5,6-hexahydro-[1,4]oxazino[4,3-a][1,5]naphthyridin-9-yl)-4-methylphenyl)-2-(trifluoromethyl) isonicotinamide], the IC50 was 0.3 nM.
CCN1C(=O)C2(F)COCC[C@@H]2c2cc(-c3cc(NC(=O)c4ccnc(C(C)(F)F)c4)ccc3C)cnc21 (stereo partly drawn) [Example 338, 2-(1,1-difluoroethyl)-N-(3-((10bR)-6-ethyl-4a-fluoro-5-oxo-2,4,4a,5,6,10b-hexahydro-1H-pyrano[3,4-c][1,8]naphthyridin-9-yl)-4-methylphenyl)isonicotinamide] gave an IC50 of 0.5 nM.
For CCN1C(=O)C2(F)COCC[C@@H]2c2cc(-c3cc(NC(=O)c4ccnc(C(F)(F)F)c4)ccc3C)cnc21 (stereo partly drawn) [Example 339, N-(3-((10bR)-6-ethyl-4a-fluoro-5-oxo-2,4,4a,5,6,10b-hexahydro-1H-pyrano[3,4-c][1,8]naphthyridin-9-yl)-4-methylphenyl)-2-(trifluoromethyl) isonicotinamide], the IC50 was 0.5 nM.
In the case of CCN1C(=O)C2(F)COCC[C@@H]2c2cc(-c3cc(NC(=O)c4cccc(C(F)(F)F)c4)cnc3C)cnc21 (stereo partly drawn) [Example 340, N-(5-((10bR)-6-ethyl-4a-fluoro-5-oxo-2,4,4a,5,6,10b-hexahydro-1H-pyrano[3,4-c][1,8]naphthyridin-9-yl)-6-methylpyridin-3-yl)-3-(trifluoromethyl) benzamide], the IC50 is reported as 1.3 nM.
CCN1C(=O)C2COCCC2(C)c2cc(-c3cc(NC(=O)c4ccnc(C(F)(F)F)c4F)ccc3C)cnc21 (stereo not drawn) [Example 347, N-(3-((4a,10b- trans)-6-ethyl-10b-methyl-5-oxo-2,4,4a.5,6,10b-hexahydro-1H-pyrano[3,4-c][1,8]naphthyridin-9-yl)-4-methylphenyl)-3-fluoro-2-(trifluoromethyl) isonicotinamide] was tested, and the IC50 was 0.3 nM.
CCN1C(=O)C2COCCC2(C)c2cc(-c3cc(NC(=O)c4ccnc(C(F)(F)F)c4F)ccc3C)cnc21 (stereo not drawn) [Example 348, N-(3-((4a,10b- trans)-6-ethyl-10b-methyl-5-oxo-2,4,4a,5,6,10b-hexahydro-1H-pyrano[3,4-c][1,8]naphthyridin-9-yl)-4-methylphenyl)-3-fluoro-2-(trifluoromethyl) isonicotinamide] gave an IC50 of 0.7 nM.
CCN1C(=O)C2COCCC2(C)c2cc(-c3cc(NC(=O)c4cccc(C(F)(F)F)c4)cnc3C)cnc21 (stereo not drawn) [Example 349, N-(5-((4a,10b- trans)-6-ethyl-10b-methyl-5-oxo-2,4,4a,5,6,10b-hexahydro-1H-pyrano[3,4-c][1,8]naphthyridin-9-yl)-6-methylpyridin-3-yl)-3-(trifluoromethyl) benzamide] was tested, and the IC50 was 3 nM.
CCN1c2ncc(-c3cc(NC(=O)c4ccnc(C(F)(F)F)c4)ccc3C)cc2[C@@H]2CCOC[C@H]2C12CC2 [Example 361, N-(3-((4a′R,10b′R)-6′-ethyl-1′,2′,4′,4a′,6′,10b′-hexahydrospiro[cyclopropane-1,5′-pyrano[3,4-c][1,8]naphthyridin]-9′-yl)-4-methylphenyl)-2-(trifluoromethyl)isonicotinamide] showed an IC50 of 0.9 nM.
Cc1ncc(NC(=O)c2cccc(C(C)(F)F)c2)cc1-c1ccc2c(c1)N1CCOC[C@H]1[C@](F)(CO)C2 [Example 367, 3-(1,1-difluoroethyl)-N-(5-((4aS,5S)-5-fluoro-5-(hydroxymethyl)-1,2,4,4a,5,6-hexahydro-[1,4]oxazino[4,3-a]quinolin-9-yl)-6-methylpyridin-3-yl)benzamide] showed an IC50 of 1 nM.
Cc1ncc(NC(=O)c2cccc(C(C)(F)F)c2)cc1-c1ccc2c(c1)N1CCOC[C@@H]1[C@@](F)(CO)C2 [Example 368, 3-(1,1-difluoroethyl)-N-(5-((4aR,5R)-5-fluoro-5-(hydroxymethyl)-1,2,4,4a,5,6-hexahydro-[1,4]oxazino[4,3-a]quinolin-9-yl)-6-methylpyridin-3-yl)benzamide] was tested, and the IC50 was 0.1 nM.
For Cc1ccc(NC(=O)c2ccnc(C(C)(F)F)c2)cc1-c1ccc2c(c1)N1CCOC[C@H]1[C@](F)(CO)C2 [Example 369, 2-(1,1-difluoroethyl)-N-(3-((4aS,5S)-5-fluoro-5-(hydroxymethyl)-1,2,4,4a,5,6-hexahydro-[1,4]oxazino[4,3-a]quinolin-9-yl)-4-methylphenyl)isonicotinamide], the IC50 was 0.3 nM.
For Cc1ccc(NC(=O)c2ccnc(C(C)(F)F)c2)cc1-c1ccc2c(c1)N1CCOC[C@@H]1[C@@](F)(CO)C2 [Example 370, 2-(1,1-difluoroethyl)-N-(3-((4aR,5R)-5-fluoro-5-(hydroxymethyl)-1,2,4,4a,5,6-hexahydro-[1,4]oxazino[4,3-a]quinolin-9-yl)-4-methylphenyl)isonicotinamide], the IC50 was 0.1 nM.
For Cc1ccc(NC(=O)c2ccnc(C(C)(F)F)c2)cc1-c1ccc2c(c1)N1CCOC[C@H]1[C@@](F)(CO)C2 [Example 371, 2-(1,1-difluoroethyl)-N-(3-((4aS,5R)-5-fluoro-5-(hydroxymethyl)-1,2,4,4a,5,6-hexahydro-[1,4]oxazino[4,3-a]quinolin-9-yl)-4-methylphenyl)isonicotinamide], the IC50 was 0.2 nM.
Cc1ccc(NC(=O)c2ccnc(C(C)(F)F)c2)cc1-c1ccc2c(c1)N1CCOC[C@@H]1[C@](F)(CO)C2 [Example 372, 2-(1,1-difluoroethyl)-N-(3-((4aR,5S)-5-fluoro-5-(hydroxymethyl)-1,2,4,4a,5,6-hexahydro-[1,4]oxazino[4,3-a]quinolin-9-yl)-4-methylphenyl)isonicotinamide] gave an IC50 of 0.3 nM.
Cc1ccc(NC(=O)c2ccnc(C(C)(F)F)c2)cc1-c1ccc2c(c1)N1CCOC[C@H]1[C@@](C)(C#N)C2 [Example 373, N-(3-((4aR,5S)-5-cyano-5-methyl-1,2,4,4a,5,6-hexahydro-[1,4]oxazino[4,3-a]quinolin-9-yl)-4-methylphenyl)-2-(1,1-difluoroethyl)isonicotinamide] was tested, and the IC50 was 0.4 nM.
In the case of Cc1ccc(NC(=O)c2ccnc(C(C)(F)F)c2)cc1-c1ccc2c(c1)N1CCOC[C@@H]1[C@](C)(C#N)C2 [Example 374, N-(3-((4aS,5R)-5-cyano-5-methyl-1,2,4,4a,5,6-hexahydro-[1,4]oxazino[4,3-a]quinolin-9-yl)-4-methylphenyl)-2-(1,1-difluoroethyl)isonicotinamide], the IC50 is reported as 0.2 nM.
For Cc1ncc(NC(=O)c2ccnc(C(C)(F)F)c2)cc1-c1ccc2c(c1)N1CCOC[C@H]1[C@@](C)(C#N)C2 [Example 375, N-(5-((4aR,5S)-5-cyano-5-methyl-1,2,4,4a,5,6-hexahydro-[1,4]oxazino[4,3-a]quinolin-9-yl)-6-methylpyridin-3-yl)-2-(1,1-difluoroethyl)isonicotinamide], the IC50 was 0.4 nM.
Work on Cc1ncc(NC(=O)c2ccnc(C(C)(F)F)c2)cc1-c1ccc2c(c1)N1CCOC[C@@H]1[C@](C)(C#N)C2 [Example 376, N-(5-((4aS,5R)-5-cyano-5-methyl-1,2,4,4a,5,6-hexahydro-[1,4]oxazino[4,3-a]quinolin-9-yl)-6-methylpyridin-3-yl)-2-(1,1-difluoroethyl)isonicotinamide] yielded an IC50 of 0.5 nM.
Cc1ccc(NC(=O)c2ccnc(C(F)(F)F)c2)cc1-c1cnc2c(c1)N1CCOC[C@H]1[C@](C)(C#N)C2 [Example 377, N-(3-((4aR,5R)-5-cyano-5-methyl-1,2,4,4a,5,6-hexahydro-[1,4]oxazino[4,3-a][1,5]naphthyridin-9-yl)-4-methylphenyl)-2-(trifluoromethyl)isonicotinamide] gave an IC50 of 0.9 nM.
Cc1ccc(NC(=O)c2ccnc(C(F)(F)F)c2)cc1-c1cnc2c(c1)N1CCOC[C@@H]1[C@@](C)(C#N)C2 [Example 378, N-(3-((4aS,5S)-5-cyano-5-methyl-1,2,4,4a,5,6-hexahydro-[1,4]oxazino[4,3-a][1,5]naphthyridin-9-yl)-4-methylphenyl)-2-(trifluoromethyl)isonicotinamide] showed an IC50 of 0.2 nM.
Cc1ccc(NC(=O)c2ccnc(C(F)(F)F)c2F)cc1-c1ccc2c(c1)N1CCOC[C@H]1[C@](F)(CO)C2 [Example 380, 3-fluoro-N-(3-((4aS,5S)-5-fluoro-5-(hydroxymethyl)-1,2,4,4a,5,6-hexahydro-[1,4)oxazino[4,3-a]quinolin-9-yl)-4-methylphenyl)-2-(trifluoromethyl)isonicotinamide] was tested, and the IC50 was 0.4 nM.
Work on Cc1ccc(NC(=O)c2ccnc(C(F)(F)F)c2)cc1-c1ccc2c(c1)N1CCOC[C@H]1[C@](F)(CO)C2 [Example 381, N-(3-((4aS,5S)-5-fluoro-5-(hydroxymethyl)-1,2,4,4a,5,6-hexahydro-[1,4]oxazino[4,3-a]quinolin-9-yl)-4-methylphenyl)-2-(trifluoromethyl)isonicotinamide] yielded an IC50 of 0.3 nM.
